Assay results from patent EP1214299B1, “MUSCARINIC ANTAGONISTS” (SCHERING CORPORATION, priority 1999, dated 2001).
Where two headings read alike, the source gives them in different places.

Assays:
[1] = target: human m1 muscarinic receptor (Homo sapiens, UniProt P11229); assay: biochemical; assay type: binding
[2] = target: human m4 muscarinic receptor (Homo sapiens, UniProt P08173); assay: biochemical; assay type: binding
Acetylcholine (ACh) = assay: Microdialysis (ACh in striatal microdialysate); assay type: in vivo, male Sprague-Dawley Rats; settings: dose of 10 mg/kg PO; ACh in rat striatum microdialysate
Experimental: The skull was exposed and drilled through to the dura at a point 0.2 mm anterior and 3.0 mm lateral to the bregma. At these coordinates, a guide cannula was positioned at the outer edge of the dura through the drilled opening, lowered perpendicularly to a depth of 2.5 mm, and permanent!y secured with dental cement to bone screws. Following the surgery, rats were given ampicillin (40 mg/kg, ip) and individually housed in modified cages. A recovery period of approximately 3 to 7 days was allowed before the microdialysis procedure was undertaken. • Microdialysis: All of the equipment and instrumentation used to conduct in vivo microdialysis was obtained from Bioanalytical Systems, Inc. (BAS). The microdialysis procedure involved the insertion through the guide cannula of a thin, needle-like perfusable probe (CMA/12,3 mm x 0.5 mm) to a depth of 3 mm in striatum beyond the end of the guide. The probe was connected beforehand with tubing to a microinjection pump (CMA/ 100). Rats were collared, tethered, and, following probe insertion, were placed in a large, clear, plexiglass bowl with litter material and access to food and water. The probe was perfused at 2 µl/min with Ringer's buffer (NaCl 147 mM; KCl 3.0 mM; CaCl2 1.2 mM; MgCl2 1.0 mM) containing 5.5 mM glucose, 0.2 mM L-ascorbate, and 1 µM neostigmine bromide at pH 7.4). To achieve stable baseline readings, microdialysis was allowed to proceed for 90 minutes prior to the collection of fractions. Fractions (20 µl) were obtained at 10 minute intervals over a 3 hour period using a refrigerated collector (CMA/170 or 200). Four to five baseline fractions were collected, following which the drug or combination of drugs to be tested was administered to the animal. Upon completion of the collection, each rat was autopsied to determine accuracy of probe placement. • Acetylcholine (ACh) analysis: The concentration of ACh in collected samples of microdialysate was determined using HPLC/electrochemical detection. Samples were auto-injected (Waters 712 Refrigerated Sample Processor) onto a polymeric analytical HPLC column (BAS, MF-6150) and eluted with 50 mM Na2HPO4, pH 8.5. To prevent bacterial growth, Kathon CG reagent (0.005%) (BAS) was included in the mobile phase. Eluent from the analytical column, containing separated ACh and choline, was then immediately passed through an immobilized enzyme reactor cartridge (BAS, MF-6151) coupled to the column outlet. The reactor contained both acetylcholinesterase and choline oxidase covalently bound to a polymeric backbone. […] Data acquisition was carried out using an IBM Model 70 computer equipped with a microchannel IEEE board. Integration and quantification of peaks were accomplished using "Maxima" chromatography software (Waters Corporation). Total run time per sample was 11 minutes at a flow rate of 1 ml/min. Retention times for acetylcholine and choline were 6.5 and 7.8 minutes, respectively. To monitor and correct for possible changes in detector sensitivity during chromatography, ACh standards were included at the beginning, middle and end of each sample queue.
Increases in ACh levels are consistent with presynaptic m2 receptor antagonism.
Data for representative and/or preferred compounds of the present invention are as follows (compounds were administered at a dose of 10 mg/kg PO): […]

[3] = target: human m3 muscarinic receptor (Homo sapiens, UniProt P20309); settings: read-out: m3 Ki; membranes from stably transfected CHO cell lines, 3H-QNB
Sequence of human m3 muscarinic receptor (P20309 whole entry): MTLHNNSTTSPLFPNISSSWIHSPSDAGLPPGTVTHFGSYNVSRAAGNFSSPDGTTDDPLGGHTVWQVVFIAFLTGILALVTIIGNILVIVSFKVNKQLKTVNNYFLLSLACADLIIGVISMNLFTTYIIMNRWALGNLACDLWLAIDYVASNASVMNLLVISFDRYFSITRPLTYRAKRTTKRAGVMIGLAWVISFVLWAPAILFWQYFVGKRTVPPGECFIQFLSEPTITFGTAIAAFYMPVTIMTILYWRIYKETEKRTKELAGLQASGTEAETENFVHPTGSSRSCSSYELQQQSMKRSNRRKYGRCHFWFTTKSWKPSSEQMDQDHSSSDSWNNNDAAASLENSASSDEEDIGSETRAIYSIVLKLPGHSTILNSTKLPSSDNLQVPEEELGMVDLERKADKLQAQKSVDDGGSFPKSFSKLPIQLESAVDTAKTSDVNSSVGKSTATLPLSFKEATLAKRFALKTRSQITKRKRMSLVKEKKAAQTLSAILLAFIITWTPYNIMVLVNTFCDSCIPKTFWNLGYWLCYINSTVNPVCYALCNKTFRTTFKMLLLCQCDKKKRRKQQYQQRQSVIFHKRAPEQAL

m5 = target: T1, m5 (Homo sapiens, UniProt P08912); settings: read-out: m5 Ki
T1 sequence (P08912 1-532): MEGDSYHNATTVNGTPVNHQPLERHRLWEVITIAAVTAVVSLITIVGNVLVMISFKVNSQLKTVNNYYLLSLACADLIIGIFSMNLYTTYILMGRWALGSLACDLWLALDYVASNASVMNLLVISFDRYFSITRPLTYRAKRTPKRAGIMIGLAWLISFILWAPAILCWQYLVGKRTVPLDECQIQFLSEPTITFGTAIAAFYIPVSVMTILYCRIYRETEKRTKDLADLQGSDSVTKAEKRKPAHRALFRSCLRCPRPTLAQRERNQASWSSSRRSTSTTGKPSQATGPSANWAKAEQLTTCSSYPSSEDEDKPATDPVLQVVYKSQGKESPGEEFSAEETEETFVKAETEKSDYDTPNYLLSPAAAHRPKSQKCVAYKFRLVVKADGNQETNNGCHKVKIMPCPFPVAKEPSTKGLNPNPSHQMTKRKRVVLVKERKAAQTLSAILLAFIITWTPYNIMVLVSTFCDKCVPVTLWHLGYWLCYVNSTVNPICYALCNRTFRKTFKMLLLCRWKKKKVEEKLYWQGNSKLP

Sequence of human m4 muscarinic receptor (P08173 whole entry): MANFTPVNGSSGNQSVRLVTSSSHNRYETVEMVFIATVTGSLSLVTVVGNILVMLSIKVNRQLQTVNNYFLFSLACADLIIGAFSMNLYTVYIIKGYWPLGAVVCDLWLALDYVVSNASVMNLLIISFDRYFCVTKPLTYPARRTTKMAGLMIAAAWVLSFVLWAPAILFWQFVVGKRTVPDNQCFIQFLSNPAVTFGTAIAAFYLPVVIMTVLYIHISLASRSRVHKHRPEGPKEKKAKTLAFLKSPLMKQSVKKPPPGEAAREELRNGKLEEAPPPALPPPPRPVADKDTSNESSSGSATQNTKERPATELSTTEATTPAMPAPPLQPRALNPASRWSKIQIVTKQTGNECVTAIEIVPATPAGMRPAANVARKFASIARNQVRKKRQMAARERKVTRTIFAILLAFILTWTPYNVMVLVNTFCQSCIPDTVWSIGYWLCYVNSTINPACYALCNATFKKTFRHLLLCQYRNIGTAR
Sequence of human m1 muscarinic receptor (P11229 whole entry): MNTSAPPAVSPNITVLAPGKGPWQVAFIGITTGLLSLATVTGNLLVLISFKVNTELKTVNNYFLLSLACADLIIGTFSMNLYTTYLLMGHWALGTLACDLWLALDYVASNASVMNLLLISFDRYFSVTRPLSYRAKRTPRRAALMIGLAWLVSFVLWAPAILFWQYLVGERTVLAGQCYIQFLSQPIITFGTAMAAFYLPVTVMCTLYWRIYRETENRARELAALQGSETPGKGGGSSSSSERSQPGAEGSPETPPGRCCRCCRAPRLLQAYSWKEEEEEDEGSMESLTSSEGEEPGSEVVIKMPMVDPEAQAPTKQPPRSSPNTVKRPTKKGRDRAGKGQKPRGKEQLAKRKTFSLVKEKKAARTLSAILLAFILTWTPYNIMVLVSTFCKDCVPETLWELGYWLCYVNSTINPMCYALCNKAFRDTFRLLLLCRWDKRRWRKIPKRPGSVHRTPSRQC

For Nc1ccccc1C(=O)N1CCC(N2CCC(Cc3ccc(S(=O)(=O)c4cccc(Cl)c4)cc3)CC2)CC1 [Example 7A], the Ki [1] was 658 nM, the Ki [2] was 33.3 nM and the “Microdialysis Maximum % of baseline” value (Acetylcholine (ACh)) was 150 % of baseline.

COc1ccc(S(=O)(=O)c2ccc(C3(C4CCN(C5CCN(C(=O)c6cccc(C)c6N)CC5)CC4)OCCO3)cc2)cc1 [Example 2] was tested, and the “Microdialysis Maximum % of baseline” value (Acetylcholine (ACh)) was 194 % of baseline.

COc1ccc(S(=O)(=O)c2ccc(C3(C4CCN(C5CCN(C(=O)c6cccc(F)c6N)CC5)CC4)OCCO3)cc2)cc1 [Example 2F] was tested, and the “Microdialysis Maximum % of baseline” value (Acetylcholine (ACh)) was 186 % of baseline.

With Cc1cccc(C(=O)N2CCC(N3CCC(Cc4ccc(S(=O)(=O)c5cccc(Cl)c5)cc4)CC3)CC2)c1N [Example 7] the Ki ([1]; membranes from stably transfected CHO cell lines, 3H-QNB, read-out: m1 Ki) was 650 nM, the Ki ([2]; membranes from stably transfected CHO cell lines, 3H-QNB, read-out: m4 Ki) was 61.4 nM and the “Microdialysis Maximum % of baseline” value (Acetylcholine (ACh)) was 180 % of baseline. It also gave a Ki [3] of 698 nM and a Ki (m5) of 84.5 nM.

In the case of Nc1cc(F)ccc1C(=O)N1CCC(N2CCC(C3(c4ccc(S(=O)(=O)c5cccc(Cl)c5)cc4)OCCO3)CC2)CC1 [Example 3E], the “Microdialysis Maximum % of baseline” value (Acetylcholine (ACh)) is reported as 188 % of baseline.
